Measured values published in patent US20220096379A1, “SELF-EMULSIFYING DRUG FORMULATION FOR IMPROVING MEMBRANE PERMEABILITY OF COMPOUND” (Chugai Seiyaku Kabushiki Kaisha, priority 2016, published 2022).
Read-outs that look alike come from different tables or passages of the source. Starred links: 1 amine or outer side, 2 acyl side, 3 side chain; linkers in the order of their positions; H or OH if unused. Positions of bridges follow the written chain, without caps; N, C: chain ends. Non-standard residues stand in square brackets, D forms with d. Residues, ends and D or L forms follow the SMILES beside them. *: point of attachment. NMeF = CN[C@@H](Cc1ccccc1)C(=O)O; NMeI = CC[C@H](C)[C@H](NC)C(=O)O; NMeβAla = CN(CCC(=O)[*:2])[*:1]; NMeL = CN[C@@H](CC(C)C)C(=O)O; NMeA = CN[C@@H](C)C(=O)O; Piperidide = C1CCN(*)CC1; Sar = CNCC(=O)O; tBu = CC(C)(C)*

Tests used:
[1] = Log D (pH 7.4) measurement, n-octanol/buffer; details: n-octanol/pH 7.4 buffer
Protocol: (§1) A two-phase separated solution of n-octanol and a pH 7.4 buffer was prepared, a DMSO solution of the drug was added to the prepared two-phase-separated solution. After shaking (room temperature, 1800 rpm, two hours), the solution was centrifuged (3000 rpm, ten minutes), only the buffer fractions were collected, and drug concentrations in the buffer fractions were measured by LC/MS. Log D (pH 7.4) was calculated from the measured drug concentrations.

[2] = Caco-2 membrane permeability evaluation (improved method, 20-24 h pre-incubation, 96-well); type: in vitro ADME; details: human; for Papp at 180 min: commercially available middle molecular weight compounds; for Papp A→B at 180 min: cyclic peptides, pre-incubation 20-24 h, apical pH 6.0, basal pH 7.4 4% BSA
Protocol: After Caco-2 cells were cultured on a 96-well transwell for three weeks, DMEM+FaSSIF (1% DMSO)+the compound was added to the Apical side and DMEM was added to the Basal side, and this was pre-incubated under 5% CO2 at 37° C. and 80 rpm for 20 hours to 24 hours. After pre-incubation, the pre-incubation solutions on the Apical and Basal sides were removed by aspiration and washed, a permeability test was initiated by adding FaSSIF/HBSS buffer (pH 6.0) containing the compound to the Apical side and HBSS buffer (pH 7.4) containing 4% BSA to the Basal side. Each well was shaken under 5% CO2, at 37° C. and 80 rpm. […] The permeability coefficient was calculated from the amount of permeation.
More specifically, after Caco-2 cells were cultured on a 96-well transwell for three weeks, DMEM+FaSSIF (1% DMSO)+the compound was added to the Apical side and DMEM was added to the Basal side, and this was pre-incubated at 5% CO2, 37° C., and 80 rpm for 20 hours to 24 hours. After pre-incubation, the pre-incubation solutions on the Apical side and on the Basal side were removed by aspiration and washed, FaSSIF/HBSS buffer (1% DMSO) (pH 6.0) containing the compound was added to the Apical side, and HBSS buffer (4% BSA) (pH 7.4) was added to the Basal side, and membrane permeability assays were initiated. […] From the amount of permeation, the membrane permeability coefficient (Papp) was calculated.

[3] = cited from earlier work
Caco-2 cells = details: cited from earlier work; for decrease in the concentration on the Apical side: 120 minutes of incubation
physchem = details: pH 7.4
Protocol: as §1

Row | SMILES | logD [1] | Papp at 180 min [2] [×10⁻⁶ cm/s] | other results
1 | CC[C@H]1OC(=O)[C@H](C)[C@@H](O[C@H]2C[C@@](C)(OC)[C@@H](O)[C@H](C)O2)[C@H](C)[C@@H](O[C@@H]2O[C@H](C)C[C@H](N(C)C)[C@H]2O)[C@](C)(O)C[C@@H](C)/C(=N\OCOCCOC)[C@H](C)[C@@H](O)[C@]1(C)O [Roxithromycin] | 2.04 | 0.108 | 
2 | CC[C@H]1OC(=O)[C@H](C)[C@@H](O[C@H]2C[C@@](C)(OC)[C@@H](O)[C@H](C)O2)[C@H](C)[C@@H](O[C@@H]2O[C@H](C)C[C@H](N(C)C)[C@H]2O)[C@](C)(O)C[C@@H](C)C(=O)[C@H](C)[C@@H](O)[C@]1(C)O [Erythromycin] | 0.89 | 0.382 | 
3 | C[C@H]1O[C@@H](O[C@H]2[C@@H](O)C[C@H](O[C@H]3[C@@H](O)C[C@H](O[C@H]4CC[C@@]5(C)[C@H](CC[C@@H]6[C@@H]5C[C@@H](O)[C@]5(C)[C@@H](C7=CC(=O)OC7)CC[C@]65O)C4)O[C@@H]3C)O[C@@H]2C)C[C@H](O)[C@@H]1O [Digoxin] |  | 0.264 | 
4 | CC[C@H](C)[C@H]1C(=O)N[C@H](C(=O)N2CCCCC2)CC(=O)N[C@H](C(C)C)C(=O)N(C)[C@@H](Cc2ccccc2)C(=O)N(C)[C@@H](CC(C)C)C(=O)N[C@@H]([C@@H](C)O)C(=O)N(C)CC(=O)N(C)[C@@H](CC(C)C)C(=O)N[C@@H](COC(C)(C)C)C(=O)N1C [Compound (5)] ([dV][NMeF][NMeL]T[Sar][NMeL]S(tBu)[NMeI]D-Piperidide; lactam N-9) |  |  | logD at 2 h [1]: 4.31; intrinsic hepatic clearance CLh int ([3]; human liver microsomes): 58 μL/min/mg protein; Papp A→B at 180 min [2]: 1.85 ×10⁻⁶ cm/s
5 | COCCc1ccc(OCC(O)CNC(C)C)cc1 (stereo not drawn) [metoprolol] |  |  | decrease in the concentration on the Apical side (Caco-2 cells): approximately 20%
6 | CO[C@H]1/C=C/O[C@@]2(C)Oc3c(C)c(O)c4c(O)c(c(/C=N/N5CCN(C6CCCC6)CC5)c(O)c4c3C2=O)NC(=O)/C(C)=C\C=C\[C@H](C)[C@H](O)[C@@H](C)[C@@H](O)[C@@H](C)[C@H](OC(C)=O)[C@@H]1C [Rifapentine] | 2.45 | 5.12 | 
7 | CC(C)c1nc(CN(C)C(=O)N[C@H](C(=O)N[C@@H](Cc2ccccc2)C[C@H](O)[C@H](Cc2ccccc2)NC(=O)OCc2cncs2)C(C)C)cs1 [Ritonavir] | 4.29 | 1.74 | 
8 | CC[C@H]1OC(=O)[C@H](C)C(=O)[C@H](C)[C@@H](O[C@@H]2O[C@H](C)C[C@H](N(C)C)[C@H]2O)[C@](C)(OC)C[C@@H](C)C(=O)[C@H](C)[C@H]2N(CCCCn3cnc(-c4cccnc4)c3)C(=O)O[C@]12C [Telithromycin] | 2.1 | 0.319 | 
9 | C[C@@H]1[C@H](O)[C@@H](C)/C=C/C=C/C=C/C=C/C=C/C=C/C=C/[C@H](O[C@@H]2O[C@H](C)[C@@H](O)[C@H](N)[C@@H]2O)C[C@@H]2O[C@](O)(C[C@@H](O)C[C@@H](O)[C@H](O)CC[C@@H](O)C[C@@H](O)CC(=O)O[C@H]1C)C[C@H](O)[C@H]2C(=O)O [AmphotericinB] | 0.11 | 0.0736 | 
10 | CO[C@H]1/C=C/O[C@@]2(C)Oc3c(C)c(O)c4c(c3C2=O)C2=NC3(CCN(CC(C)C)CC3)NC2=C(NC(=O)/C(C)=C\C=C\[C@H](C)[C@H](O)[C@@H](C)[C@@H](O)[C@@H](C)[C@H](OC(C)=O)[C@@H]1C)C4=O [Rifabutin] | 3.88 | 1.08 | 
11 | C=CC[C@@H]1/C=C(\C)C[C@H](C)C[C@H](OC)[C@H]2O[C@@](O)(C(=O)C(=O)N3CCCC[C@H]3C(=O)O[C@H](/C(C)=C/[C@@H]3CC[C@@H](O)[C@H](OC)C3)[C@H](C)[C@@H](O)CC1=O)[C@H](C)C[C@@H]2OC [Tacrolimus] | 4.19 | 2.48 | 
12 | CC[C@H](C)[C@H]1C(=O)N[C@@H](COC(C)(C)C)C(=O)N[C@H](C(=O)N2CCCCC2)CC(=O)N(C)[C@@H](C)C(=O)N(C)[C@@H](Cc2ccccc2)C(=O)N(C)CC(=O)N(C)[C@@H](CC(C)C)C(=O)N[C@@H]([C@@H](C)O)C(=O)N(C)[C@@H](C)C(=O)N(C)[C@@H](CC(C)C)C(=O)N1C [Compound (2)] ([NMeA][NMeF][Sar][NMeL]T[NMeA][NMeL][NMeI]S(tBu)D-Piperidide; lactam N-10) |  |  | intrinsic hepatic clearance CLh int ([3]; human liver microsomes): 48 μL/min/mg protein; logD at 2 h (physchem): 4.43
13 | CC[C@H]1OC(=O)[C@H](C)[C@@H](O[C@H]2C[C@@](C)(OC)[C@@H](O)[C@H](C)O2)[C@H](C)[C@@H](O[C@@H]2O[C@H](C)C[C@H](N(C)C)[C@H]2O)[C@](C)(O)C[C@@H](C)CN(C)[C@H](C)[C@@H](O)[C@]1(C)O [Azithromycin] | 0.62 | 0.515 | 
14 | CCC1=C[C@@H]2CN(C1)Cc1c([nH]c3ccccc13)[C@@](C(=O)OC)(c1cc3c(cc1OC)N(C)[C@H]1[C@@](O)(C(=O)OC)[C@H](OC(C)=O)[C@]4(CC)C=CCN5CC[C@]31[C@@H]54)C2 [Vinorelbine] | 2.82 | 0.0903 | 
15 | CO[C@H]1/C=C/O[C@@]2(C)Oc3c(C)c(O)c4c(O)c(c(/C=N/N5CCN(C)CC5)c(O)c4c3C2=O)NC(=O)/C(C)=C\C=C\[C@H](C)[C@H](O)[C@@H](C)[C@@H](O)[C@@H](C)[C@H](OC(C)=O)[C@@H]1C [Rifampicin] | 1.61 | 1.73 | 
16 | CO[C@H]1C[C@@H]2CC[C@@H](C)[C@@](O)(O2)C(=O)C(=O)N2CCCC[C@H]2C(=O)O[C@H]([C@H](C)C[C@@H]2CC[C@@H](O)[C@H](OC)C2)CC(=O)[C@H](C)/C=C(\C)[C@@H](O)[C@@H](OC)C(=O)[C@H](C)C[C@H](C)/C=C/C=C/C=C/1C [Rapamycin] | 4.36 | 1.84 | 
17 | CC(C)NCC(O)COc1cccc2ccccc12 (stereo not drawn) [propranolol] |  |  | decrease in the concentration on the Apical side (Caco-2 cells): approximately 40%; added drug distributed in the cells after completion of incubation (Caco-2 cells): approximately 8%
18 | CC(=O)O[C@H]1C(=O)[C@@]2(C)[C@H]([C@H](OC(=O)c3ccccc3)[C@]3(O)C[C@H](OC(=O)[C@H](O)[C@@H](NC(=O)c4ccccc4)c4ccccc4)C(C)=C1C3(C)C)[C@]1(OC(C)=O)CO[C@@H]1C[C@@H]2O [Paclitaxel] | 3.36 | 0.138 | 
19 | CCC(C)n1ncn(-c2ccc(N3CCN(c4ccc(OCC5COC(Cn6cncn6)(c6ccc(Cl)cc6Cl)O5)cc4)CC3)cc2)c1=O (stereo not drawn) [Itraconazole] | 4.29 | 1.06 | 
20 | CC(C)C[C@H]1C(=O)N(C)[C@@H](CC(C)C)C(=O)N[C@H](C(=O)N2CCCCC2)CC(=O)N(C)CCC(=O)N(C)[C@@H](Cc2ccccc2)C(=O)N[C@@H]([C@@H](C)O)C(=O)N(C)CC(=O)N[C@@H](COC(C)(C)C)C(=O)N1C [Compound (6)] ([NMeβAla][NMeF]T[Sar]S(tBu)[NMeL][NMeL]D-Piperidide; lactam N-8) |  |  | intrinsic hepatic clearance CLh int ([3]; human, microsomes): 86 μL/min/mg protein; logD at 2 h (physchem): 3.19
21 | CC(C)C[C@@H]1NC(=O)[C@H](Cc2ccccc2)N(C)C(=O)[C@H](Cc2ccccc2)N(C)C(=O)[C@H](CC(C)C)NC(=O)[C@H](C)N(C)C(=O)[C@H]([C@@H](C)O)NC(=O)[C@H](C)N(C)C(=O)C[C@@H](C(=O)N2CCCCC2)NC(=O)[C@H](CC(C)C)N(C)C1=O [Compound (4)] ([NMeA]T[NMeA]L[NMeF][NMeF]L[NMeL]D-Piperidide; lactam N-9) |  |  | logD at 2 h [1]: 5.17; intrinsic hepatic clearance CLh int ([3]; human liver microsomes): 189 μL/min/mg protein; Papp A→B at 180 min [2]: 4.14 ×10⁻⁶ cm/s
22 | CC[C@H](C)[C@H]1C(=O)N(C)[C@@H](C)C(=O)N(C)[C@@H](Cc2ccccc2)C(=O)N[C@@H]([C@@H](C)O)C(=O)N(C)[C@@H](Cc2ccccc2)C(=O)N(C)[C@@H](CC(C)C)C(=O)N2CCC[C@H]2C(=O)N[C@H](C(=O)N2CCCCC2)CC(=O)N[C@@H](C)C(=O)NCC(=O)N(C)[C@@H](CC(C)C)C(=O)N1C [Compound (1)] (AG[NMeL][NMeI][NMeA][NMeF]T[NMeF][NMeL]PD-Piperidide; lactam N-11) |  |  | intrinsic hepatic clearance CLh int ([3]; human liver microsomes): 74 μL/min/mg protein; Papp A→B at 180 min [2]: 0.262 ×10⁻⁶ cm/s; logD at 2 h (physchem): 5.19
23 | CC[C@H](C)[C@H]1C(=O)N[C@H](C(=O)N2CCCCC2)CC(=O)N[C@H](C(C)C)C(=O)N(C)[C@@H](CC(C)C)C(=O)N(C)[C@@H](Cc2ccccc2)C(=O)N(C)[C@@H](C)C(=O)N[C@@H]([C@@H](C)O)C(=O)N(C)CC(=O)N(C)[C@@H](CC(C)C)C(=O)N[C@@H](COC(C)(C)C)C(=O)N1C [Compound (3)] ([dV][NMeL][NMeF][NMeA]T[Sar][NMeL]S(tBu)[NMeI]D-Piperidide; lactam N-10) |  |  | intrinsic hepatic clearance CLh int ([3]; human liver microsomes): 46 μL/min/mg protein; Papp A→B at 180 min [2]: 0.249 ×10⁻⁶ cm/s; logD at 2 h (physchem): 4.18
